≈ marks a conversion by molar mass, not a printed value.
What was measured:
[1] = test system: murine macrophages J774.A1; assay: Cytotoxicity assays on murine macrophages (WST-1); type: cell-based; settings: error 1 SD
Experimental: Cytotoxicity assays on murine macrophages. Murine macrophages from the cell line J774.A1 (ATCC® TIB-67TM) were cultivated under a humidified 5% CO2/95% air atmosphere at 37°C in Dulbecco’s modified Eagle’s medium (DMEM) supplemented with 10% (v/v) FBS, 10 U/mL penicillin and 10 μg/mL streptomycin. The experimental protocol for the determination of EC50 values was identical as described by Demoro et al. 2012 [71], with the following change: 200 μL/well of a cell suspension at 6 × 10^4 cells per mL was added in a 96-well culture plate and washed with 150 μL of DMEM. The cytotoxicity of the compounds was evaluated in triplicate using the WST-1 reagent (Roche). The control treatment included cells cultured in the presence of DMSO 1% (v/v). Absorbance at 450 nm (Ai 450 nm), corresponding to the formazan dye produced by metabolically active cells, was measured with an EL 800-microplate reader. The corrected absorbance values at 450 nm (Ai c 450 nm) were obtained by subtracting the corresponding absorbance value at 630 nm (Ai 630 nm) and the blank average (Ablank 450 nm): Aic450nm=Ai450nm-Ai630nm-Ablank450nm
Cell viability (%), with the number of viable cells proportional to the absorbance, was calculated as follows: cellviability%=Aic450nm/Anegativecontrolc450nm*100%
Ai c 450 nm refers to an absorbance obtained from cells treated with compound I at a specific concentration (i) and Anegative control c 450 nm refers to an absorbance obtained from cells in the DMSO-treated control (negative control). The errors were calculated using error propagations and are expressed as one SD, estimated as σ^n−1.

[2] = Kinetic aqueous solubility by nephelometry; type: physicochemical; settings: phosphate-buffered saline, aqueous buffer, kinetic from dmso stock, PBS pH 7.4, 1% DMSO, 25°C, logS = decadic logarithm of molar solubility [M]
Experimental: (§1) Phosphate-buffered saline pH 7.4 was prepared according to the European Pharmacopeia 10.4 by dissolving 2.38 g sodium monohydrogen phosphate dodecahydrate, 0.19 g potassium dihydrogen phosphate and 8.0 g sodium chloride in demineralised water (to a total volume of 1000 mL). The pH was adjusted to a value of 7.4 with hydrochloric acid. The buffer was filtered through a 0.45 μm membrane filter (Chromafil® Xtra PES-45/25) before use.
The kinetic aqueous solubility was determined by nephelometry. The measurements were performed on the NEPHELOstar Plus, with accompanying software Omega 5.11 and MARS 3.20 (BMG LABTECH, Ortenberg, Germany). Generally, 2 dilution series of 1–2 weighed portions of each substance were measured. First, stock solutions of the compounds were prepared in DMSO. A series of dilutions in DMSO were prepared from one stock solution to obtain at least 3 concentrations below and 3 concentrations above the precipitation point in the measured series. The specific concentrations were usually measured as duplicates.
The 96-well plate (Corning UV transparent flat-bottom 96-well plate, Corning Incorporated, Kennenbunk, ME, USA) was inspected for contamination and scratches and measured without samples prior to the solubility measurement of the compounds. 198 μL of phosphate-buffered saline pH 7.4 was placed in a 96 well plate for each well to be measured. 2 μL of a DMSO solution was added and immediately mixed by moving the pipette plunger. This solution either contained no substance—and served as a blank for the measurement (3 wells)—or the respective DMSO dilution of the substance (2–4 wells). The concentration of the solvent DMSO in each measured solution was 1%. The concentration of the compound corresponds to a 1:100 dilution compared to the respective DMSO dilution. The well plate bottom was cleaned with a lint-free cloth and compressed air and inspected for impurities before measurement. After shaking at 500 rpm for 10 s (double orbital), the measurement was carried out in the nephelometer with the laser intensity set to 80% and beam focus of 2.5 mm at a temperature of 25°C.
The obtained measuring points, relative nephelometric units (RNU) per compound concentration, were used to model two straight lines: one straight line with constant low readings and slope → 0 characterises the concentration range where no precipitation has taken place yet; The other straight line has a steep slope and increase of the RNU per concentration and characterises the concentrations at which precipitation takes place in the respective sample vessels.
The evaluation was carried out by calculating the two straight lines and their point of intersection. Outliers and values in a saturation range for the kick-off curve (usually >800 kRNU) were not used to create the straight lines and are listed separately in the evaluation file. […] The x-value of the intersection of the two straight lines represents the kinetic solubility. The results of two dilution series are additionally indicated as range (in brackets). For measurements of 3 or more series, a mean value with standard deviation is provided. The logS value describes the decadic logarithm of the molar solubility: logS (molar solubility [M]).

[3] = Thermodynamic aqueous solubility, shake-flask method and HPLC-UV; type: physicochemical; settings: phosphate-buffered saline, aqueous buffer, thermodynamic from solid, PBS pH 7.4, 25°C, up to 72 h, HPLC-UV, logS of molar solubility [M]
Experimental: as §1
The thermodynamic aqueous solubility was determined by a miniaturised shake-flask method. […] A negative control with the buffer (400 μL) was incubated for every time point and measured likewise. After incubation for 24 h, 48 h and 72 h, the vials were checked for undissolved compound; then the filter plunger was punched into the vial for filtration. […] The calibration curve was obtained from at least three dilutions and five measuring points from a DMSO stock solution of the respective compound.

Structure (SMILES) | Macrophage toxicity [% at stated conc.] ([1]; % cell death at 60 μM) [%] | solubility kinetic at 10 s [2] [M] | solubility thermodynamic at 72 h [3] [M] | Macrophage toxicity [% at stated conc.] ([1]; % cell death at 50 μM) [%]
CNCCNC(=O)CN1C(=O)Cc2c([nH]c3ccc(I)cc23)-c2ccc(Cl)cc21 [1f, 2-(3-Chloro-9-iodo-6-oxo-7,12-dihydrobenzo[2,3]azepino[4,5-b]indol-5(6H)-yl)-N-[2-(methylamino)ethyl]acetamide] | 105.8 ± 0.2 | 2.95e-05 (≈ 15.4 µg/mL) | 1.7e-06 (≈ 0.888 µg/mL) | –
CNCCNC(=O)CN1C(=O)Cc2c([nH]c3ccc(Cl)cc23)-c2ccc(Cl)cc21 [1g, 2-(3,9-Dichloro-6-oxo-7,12-dihydrobenzo[2,3]azepino[4,5-b]indol-5(6H)-yl)-N-[2-(methylamino)ethyl]acetamide] | – | 4.79e-05 (≈ 20.6 µg/mL) | 1.29e-05 (≈ 5.56 µg/mL) | 101.9 ± 3.6
CNCCNC(=O)CN1C(=O)Cc2c([nH]c3ccc(C(F)(F)F)cc23)-c2ccc(Cl)cc21 [1h, 2-(3-Chloro-6-oxo-9-trifluoromethyl-7,12-dihydrobenzo[2,3]azepino[4,5-b]indol-5(6H)-yl)-N-[2-(methylamino)ethyl]acetamide] | 102.8 ± 0.4 | 4.27e-05 (≈ 19.8 µg/mL) | < 2.95e-07 | –
